Measurements published in PMC9447431 (Journal of chemical information and modeling, 2021).
Read-outs that look alike come from different tables or passages of the source.

Legend:
Type in all cases: cell-based
OPRK [1] = target: T1, OPRK (Homo sapiens, UniProt P41145); test: cell-based
OPRM [2] = target: T2, OPRM (Homo sapiens, UniProt P35372); test: cell-based
OPRM [3] = target: T2, OPRM; test: cell-based; remark: listed apart in the source
OPRD [4] = target: T3, OPRD (Homo sapiens, UniProt P41143); test: qHTS cAMP assay, agonist mode, HDOR cells; details: CHO-K1 cells expressing human δ-OPR (HDOR)
OPRK [5] = target: T1, OPRK; test: qHTS cAMP assay, agonist mode, HKOR cells
OPRD [6] = target: T3, OPRD; test: qHTS cAMP assay, antagonist mode, HDOR cells
[7] = OPRK-agonist, CHO-K1 cells expressing human κ-OPR (HKOR), cAMP

T3 sequence (P41143 whole entry): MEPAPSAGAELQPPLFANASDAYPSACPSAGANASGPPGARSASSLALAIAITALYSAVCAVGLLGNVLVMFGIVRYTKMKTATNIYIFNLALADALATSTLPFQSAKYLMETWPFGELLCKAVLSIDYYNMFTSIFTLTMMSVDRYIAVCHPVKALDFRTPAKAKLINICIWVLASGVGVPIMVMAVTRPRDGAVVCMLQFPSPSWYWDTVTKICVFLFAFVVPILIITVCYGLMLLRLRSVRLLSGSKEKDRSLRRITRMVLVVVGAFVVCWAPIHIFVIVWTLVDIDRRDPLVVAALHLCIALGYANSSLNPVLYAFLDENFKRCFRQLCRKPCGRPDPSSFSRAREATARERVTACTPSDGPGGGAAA
T1 sequence (P41145 whole entry): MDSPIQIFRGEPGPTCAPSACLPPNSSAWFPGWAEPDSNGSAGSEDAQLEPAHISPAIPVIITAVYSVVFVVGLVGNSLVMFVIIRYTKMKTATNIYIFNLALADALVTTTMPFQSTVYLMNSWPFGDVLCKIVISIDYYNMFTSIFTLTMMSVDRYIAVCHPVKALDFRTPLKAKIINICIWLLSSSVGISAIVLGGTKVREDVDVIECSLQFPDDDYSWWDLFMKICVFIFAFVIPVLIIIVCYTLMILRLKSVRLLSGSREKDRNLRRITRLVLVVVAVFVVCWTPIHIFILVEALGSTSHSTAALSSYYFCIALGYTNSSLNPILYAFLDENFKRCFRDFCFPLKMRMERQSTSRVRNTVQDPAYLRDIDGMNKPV
T2 sequence (P35372 whole entry): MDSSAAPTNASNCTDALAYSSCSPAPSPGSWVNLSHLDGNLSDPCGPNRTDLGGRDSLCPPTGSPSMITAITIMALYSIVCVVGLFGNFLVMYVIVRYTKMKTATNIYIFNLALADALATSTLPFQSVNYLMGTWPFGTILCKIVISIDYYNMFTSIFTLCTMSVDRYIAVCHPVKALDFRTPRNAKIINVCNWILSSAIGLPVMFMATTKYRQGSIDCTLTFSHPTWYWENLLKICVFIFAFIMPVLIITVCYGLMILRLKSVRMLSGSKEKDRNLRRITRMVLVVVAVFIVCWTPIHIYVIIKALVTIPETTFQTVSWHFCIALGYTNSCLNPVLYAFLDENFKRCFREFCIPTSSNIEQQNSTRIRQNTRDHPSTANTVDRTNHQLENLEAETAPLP

Compound: Cc1cccc(-c2[nH]c(Cc3cccc(C(N)=O)c3)nc2-c2ccc3nccnc3c2)n1 [NCGC00386726-01, IN-1130]
- AC50 (OPRK [1]): 2060 nM
- IC50 (OPRK [1]): 2060 nM

Compound: O=C(NCCCc1nc2ccccc2n1Cc1ccccc1Cl)C1CCCCC1 [NCGC00114743-01]
- AC50 (OPRM [2]): 1640 nM

Compound: COc1ccc(NC(=O)Cn2c(=O)n(-c3ccc(CC(=O)NCC4CCCO4)cc3)c(=O)c3ccccc32)c(OC)c1 (centres unmarked) [NCGC00106344-01]
- AC50 (OPRK [1]): 2060 nM
- IC50 (OPRK [1]): 2060 nM

Compound: COc1ccccc1N1CCN(Cc2cc(COC(C)C)c3cccnc3c2O)CC1 [NCGC00114968-02]
- AC50 (OPRM [3]): 650 nM

Compound: CCCN(CCC)S(=O)(=O)c1ccc(C(=O)Nc2sc3c(c2C(=O)OC)CCN(CC)C3)cc1 [NCGC00139128-01]
- AC50 (OPRD [4]): 2060 nM

Compound: O=C(NCCN1CCC(n2c(=O)[nH]c3ccccc32)CC1)c1cc2cc(F)ccc2[nH]1 [NCGC00370807-05, FIPI]
- AC50 (OPRM [2]): 580 nM

Compound: CCOC(=O)c1c(NC(=O)c2ccc(S(=O)(=O)N(C)C)cc2)sc2c1CCN(C)C2 [NCGC00136158-01]
- AC50 (OPRD [4]): 2310 nM

Compound: CO[C@H]1C[C@@H]2CC[C@@H](C)[C@@](O)(O2)C(=O)C(=O)N2CCCC[C@H]2C(=O)O[C@H]([C@H](C)C[C@@H]2CC[C@@H](OP(C)(C)=O)[C@H](OC)C2)CC(=O)[C@H](C)/C=C(\C)[C@@H](O)[C@@H](OC)C(=O)[C@H](C)C[C@H](C)/C=C/C=C/C=C/1C [NCGC00346481-02, Ridaforolimus]
- AC50 (OPRK [5]): 130 nM

Compound: O=C(Nc1ccccc1C(F)(F)F)N1CCC(CN2CCc3ccccc3C2)CC1 [NCGC00123899-01]
- AC50 (OPRM [2]): 920 nM

Compound: O=C(NCCCc1nc2ccccc2n1Cc1c(F)cccc1Cl)C1CCCCC1 [NCGC00114741-01]
- AC50 (OPRM [2]): 520 nM

Compound: Cc1cccc(OCC(=O)NCC2(N3CCN(C)CC3)CCCCC2)c1C [NCGC00118605-01]
- AC50 (OPRM [2]): 1830 nM

Compound: CCCC1=Nc2cc(C(=O)N3CCC(C)CC3)ccc2Sc2ccc(C)cc21 [NCGC00107633-01]
- AC50 (OPRM [2]): 920 nM

Compound: CN1CCN(C2(CNC(=O)c3ccc(C(C)(C)C)cc3)CCCCC2)CC1 [NCGC00118549-01]
- AC50 (OPRM [2]): 460 nM

Compound: Nc1ncnc2c1nc(Cl)n2[C@@H]1O[C@@H]2COP(=O)(O)O[C@H]2[C@H]1O [NCGC00485288-01, Tocladesine]
- AC50 (OPRM [3]): 1030 nM
- AC50 (OPRK [1]): 920 nM
- AC50 (OPRD [6]): 460 nM

Compound: O=C(O)c1ccc(O)c2ncc(N3CCCN(CCc4cccc5ccccc45)CC3)cc12 [NCGC00247751-02]
- AC50 (OPRM [2]): 650 nM

Compound: CCn1c(=N)n(CCOc2ccc(Br)cc2)c2ccccc21 [NCGC00141762-01]
- AC50 (OPRM [2]): 2060 nM

Compound: COc1ccccc1N1CCN(CC[C@@](C)(C(=O)C2CCCCC2)c2ccccc2)CC1 [NCGC00386484-01, LY 426965]
- AC50 (OPRM [2]): 180 nM

Compound: O=C(CC(c1ccccc1)c1ccccc1)N1CCN(C(c2ccccc2)c2ccccc2)CC1 [NCGC00378879-01, NP-118809]
- AC50 (OPRM [2]): 1830 nM

Compound: Cc1cc(Cl)ccc1OCC(=O)N(Cc1ccc(N(C)C)cc1)CC1CCCO1 (centres unmarked) [NCGC00117293-01]
- AC50 (OPRK [5]; [7]): 2500 nM

Compound: Nc1ncnc2c1ncn2[C@@H]1O[C@@H]2COP(O)(=S)O[C@H]2[C@H]1O (some centres unmarked) [NCGC00485585-01, Adenosine 3’,5’-cyclothiophosphate]
- AC50 (OPRM [3]): 60 nM
- IC50 (OPRM [3]): 40 to 70 nM
- AC50 (OPRK [1]): 70 nM
- IC50 (OPRK [1]): 40 to 70 nM
- IC50 (OPRD [6]; OPRD, antagonist mode, range given for all three receptors): 40 to 70 nM
- AC50 (OPRD [6]; OPRD-antagonist, HDOR cells, with 2nM dynorphin B): 40 nM

Compound: N#CC(CCCN1CCC(O)(c2ccc(Cl)cc2)CC1)(c1ccccc1)c1ccccc1 [NCGC00378719-01, VUF-2274]
- AC50 (OPRM [2]): 410 nM

Compound: Cc1cn(CCN2CCN(c3ccccc3-c3cc(C#N)cc(C(=O)NCCCN4CCCC4)c3)CC2)c2ccccc12 [NCGC00356417-05, LLY-507]
- AC50 (OPRM [2]): 130 nM

Compound: CCC(=O)NCC(c1ccc2c(c1)OCO2)N1CCN(c2ccccc2)CC1 (centres unmarked) [NCGC00135974-01]
- AC50 (OPRK [5]; [7]): 1160 nM
